Key:
Test in all cases: relative viability (nuclei count vs DMSO), 5 days (fraction); higher = more cells survive
[1] = compound: CCc1c2c(nc3ccc(OC(=O)N4CCC(N5CCCCC5)CC4)cc13)-c1cc3c(c(=O)n1C2)COC(=O)[C@]3(O)CC [Irinotecan] + COc1cc2c(Oc3ccc(NC(=O)C4(C(=O)Nc5ccc(F)cc5)CC4)cc3F)ccnc2cc1OCCCN1CCOCC1 [Foretinib] (partner 0.25 µM)
Procedure, shortened: (§1)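 Lung cancer cell lines in 1536-well plates were dosed by pin tool the day after seeding, either with one drug alone or with a fixed anchor-drug dose plus five library-drug doses (not always all listed) in √10 steps. After 5 days, cells were fixed and their nuclei stained in one step (final 0.05% Triton X-100, 1% formaldehyde, 1 ug/ml Hoechst), then counted on 4× images. Relative viability is the nuclei count in treated wells divided by that in vehicle wells. Values are medians of duplicate plates.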

[2] = compound: CCc1c2c(nc3ccc(OC(=O)N4CCC(N5CCCCC5)CC4)cc13)-c1cc3c(c(=O)n1C2)COC(=O)[C@]3(O)CC [Irinotecan] + Nc1ncn([C@H]2C[C@H](O)[C@@H](CO)O2)c(=O)n1 [Decitabine] (partner 2 µM)
Procedure, shortened: as §1

[3] = compound: Cn1cc(-c2cnc3ccc4ccc(CS(=O)(=O)NCc5ccccn5)cc4c(=O)c3c2)cn1 [MK-8033] + Cc1nc(NC(=O)N2CCC[C@H]2C(N)=O)sc1-c1ccnc(C(C)(C)C(F)(F)F)c1 [Alpelisib] (partner 2 µM)
Procedure, shortened: as §1

[4] = compound: CC[C@@H](C)CNCC(=O)N1CCC2=C([C@@H]1COC3=CC=CC(=C3)C)C=CS2 [RU-SKI 43] + C[C@]1(O)C[C@@H](c2nc(-c3ccc4ccc(-c5ccccc5)nc4c3)c3c(N)nccn32)C1 [Linsitinib] (partner 1 µM)
Procedure, shortened: as §1

Row | Cell Line | relative viability ([1]; first compound 0.6325 µM) | relative viability ([1]; first compound 2 µM) | relative viability ([1]; first compound 6.325 µM) | relative viability ([1]; first compound 20 µM) | relative viability ([2]; first compound 0.6325 µM) | relative viability ([2]; first compound 2 µM) | relative viability ([2]; first compound 6.325 µM) | relative viability ([2]; first compound 20 µM) | relative viability ([3]; first compound 0.02 µM) | relative viability ([3]; first compound 0.06325 µM) | relative viability ([3]; first compound 0.2 µM) | relative viability ([3]; first compound 0.6325 µM) | relative viability ([3]; first compound 2 µM) | relative viability ([4]; first compound 0.1 µM) | relative viability ([4]; first compound 0.3162 µM) | relative viability ([4]; first compound 1 µM) | relative viability ([4]; first compound 3.162 µM) | relative viability ([4]; first compound 10 µM)
1 | NCI-H1437 | 0.954 | 0.616 | 0.42 | 0.368 | 0.586 | 0.536 | 0.391 | 0.334 | 0.966 | 0.905 | 0.883 | 0.941 | 0.956 | 1.13 | 1.26 | 1.15 | 1.04 | 0.91
2 | A-427 |  | 0.24 | 0.229 | 0.219 | 0.566 | 0.573 | 0.347 | 0.198 | 1.05 | 1.07 | 1.03 | 1.16 | 1.11 | 1.08 | 1.22 | 1.13 |  | 1.01
3 | NCI-H2405 |  | 0.897 | 0.394 | 0.307 |  | 0.667 | 0.411 | 0.255 | 0.732 | 0.731 | 0.699 | 0.765 | 0.736 | 0.866 | 0.941 | 0.732 | 0.857 | 0.808
4 | SK-MES-1 | 0.915 | 0.644 | 0.441 | 0.285 | 0.398 | 0.483 | 0.282 | 0.143 | 0.927 | 0.811 | 0.89 | 0.936 | 0.96 | 1.03 | 1.1 | 1.18 | 1.04 | 1.01
5 | LC-2-ad | 0.73 | 0.621 | 0.288 | 0.235 | 0.532 | 0.355 | 0.338 | 0.262 | 0.888 | 0.864 | 0.825 | 0.823 | 0.849 | 0.818 | 0.831 | 0.899 | 0.857 | 0.726
6 | NCI-H1944 | 0.655 | 0.351 | 0.198 | 0.18 | 0.323 | 0.206 | 0.149 | 0.151 | 0.82 |  | 0.747 | 0.849 | 0.873 | 1.24 | 1.2 | 1.34 | 1.24 | 1.15
7 | NCI-H322M | 0.971 | 0.882 | 0.491 | 0.368 | 0.602 | 0.725 | 0.548 | 0.342 | 0.697 | 0.77 | 0.801 | 0.792 | 0.839 | 0.832 | 0.915 | 0.967 | 1.02 | 0.893
8 | HCC-827 | 0.637 | 0.324 | 0.207 | 0.175 | 0.337 | 0.326 | 0.174 | 0.221 | 1.01 |  | 1.07 | 0.908 | 0.91 | 0.96 | 0.936 | 1.04 | 1.02 | 0.734
9 | SW 1573 | 0.848 | 0.786 | 0.463 | 0.195 | 0.445 | 0.511 | 0.173 | 0.0927 | 0.817 |  | 0.698 | 0.687 | 0.719 | 0.884 | 0.824 | 0.841 | 0.692 | 0.688
10 | NCI-H23 | 0.471 | 0.258 | 0.227 | 0.25 | 0.288 | 0.243 | 0.211 | 0.251 | 0.737 | 0.639 | 0.679 | 0.668 | 0.633 | 0.646 | 0.541 | 0.652 | 0.724 | 0.572
11 | EMC-BAC-2 | 0.691 | 0.379 | 0.274 | 0.44 | 0.933 | 0.719 | 0.432 | 0.277 | 0.666 | 0.709 | 0.743 | 0.713 | 0.68 | 0.811 | 0.982 | 0.895 | 0.838 | 0.851
12 | EPLC-272H | 0.283 | 0.235 | 0.168 | 0.297 |  | 0.33 | 0.223 | 0.151 | 0.91 |  | 0.877 | 0.948 | 1.02 | 1.35 | 1.37 | 1.41 |  | 1.07
13 | EKVX | 0.199 | 0.726 | 0.529 | 0.164 |  | 0.27 | 0.262 | 0.229 | 0.812 | 0.747 | 0.787 | 0.808 | 0.903 | 0.948 | 1.24 | 0.977 | 1.05 | 1
14 | HCC-15 |  | 0.695 | 0.23 | 0.161 | 0.363 | 0.45 | 0.381 | 0.14 | 0.847 | 0.947 | 0.863 | 0.841 | 0.875 | 0.964 | 1.1 | 0.988 | 0.946 | 0.882
15 | LXF-289 | 1.05 | 0.615 | 0.167 | 0.2 | 0.351 | 0.218 | 0.162 | 0.165 | 1.08 | 0.984 | 0.976 | 0.994 | 0.998 | 0.982 | 1.01 | 0.96 | 0.983 | 0.956
16 | LK-2 | 1.25 | 0.329 | 0.305 | 0.283 | 0.285 | 0.379 | 0.226 | 0.216 | 1.22 | 1.04 | 1.02 | 1.17 | 1 | 0.74 | 0.564 | 0.674 | 0.495 | 0.889
17 | NCI-H2126 |  | 1.18 | 0.67 | 0.51 | 0.503 | 0.372 | 0.295 | 0.267 | 0.749 | 0.731 | 0.763 | 0.772 | 0.702 | 0.683 | 0.698 | 0.717 | 0.762 | 0.702
18 | NCI-H596 | 0.841 | 0.783 | 0.621 | 0.632 | 1.06 | 0.842 | 0.85 | 1.49 | 0.436 | 0.511 | 0.462 | 0.46 | 0.477 | 1.14 | 1.07 | 1.08 | 1.02 | 0.96
19 | NCI-H3122 | 0.833 | 0.236 | 0.183 | 0.171 | 0.232 | 0.163 | 0.117 | 0.127 | 0.817 | 0.755 | 0.777 | 0.853 | 0.859 | 0.992 | 1.05 | 1.09 | 1.12 | 1.08
20 | NCI-H727 | 0.65 | 0.501 | 0.477 | 0.379 | 0.617 | 0.751 | 0.527 | 0.602 | 0.502 | 0.615 | 0.589 | 0.577 | 0.589 | 0.31 | 0.244 | 0.335 | 0.223 | 0.242
21 | NCI-H1355 |  | 0.622 | 0.321 | 0.259 |  | 0.27 | 0.19 | 0.242 | 0.766 | 0.74 | 0.72 | 0.87 | 0.786 | 0.941 | 0.864 | 0.844 | 0.97 | 0.84
22 | NCI-H661 | 0.957 | 0.913 | 0.605 | 0.397 | 0.532 | 0.546 | 0.424 | 0.168 | 0.581 | 0.261 | 0.634 | 0.592 | 0.778 | 0.433 | 0.645 | 0.557 | 0.518 | 0.651

From the supplement of paper PMC10307832
